The test addresses BRD4 (Homo sapiens, UniProt O60885). Put plainly: Time Resolved Fluorescence Resonance Energy Transfer (TR-FRET) binding assay, BRD4. As to conditions: one of the FRET assays described; for pIC50: read-out: FRET BRD4 IC50. A general note: TR-FRET usually uses a lanthanide donor and a delayed reading to cut background.

pIC50: −log10 of the molar value. Where two headings read alike, the source gives them in different places.

With `[2H]C([2H])([2H])c1nnn(C)c1-c1cnc2c3c(OCC(C)(F)F)ccc(S(C)(=O)=O)c3n(C(c3ncccc3F)C3CCOCC3)c2c1` (stereo not shown) [Example 248, 2-{[9-(2,2-Difluoropropoxy)-6-methanesulfonyl-3-[4-(^2H3)methyl-1-methyl-1H-1,2,3-triazol-5-yl]-5H-pyrido[3,2-b]indol-5-yl](oxan-4-yl)methyl}-3-fluoropyridine], the pIC50 is above 5.82.
For the compound `Cc1nnn(C)c1-c1cnc2c3c(F)cc(C(C)(C)O)cc3n(C(c3cc(F)ccc3F)C3CCOCC3)c2c1` (single isomer, unassigned) [Example 107, 2-{5-[(2,5-Difluorophenyl)(oxan-4-yl)methyl]-3-(dimethyl-1H-1,2,3-triazol-5-yl)-9-fluoro-5H-pyrido[3,2-b]indol-7-yl}propan-2-ol], the pIC50 was above 8.30.
For `Cc1nnn(C)c1-c1cnc2c3ccc(C(C)(C)O)cc3n(C(CC3CC3)C3CCOCC3)c2c1` (single isomer, unassigned) [Example 395], the pIC50 was above 8.30.
For `COC(=O)NC(C)(C)c1ccc2c3ncc(-c4c(C)nnn4C)cc3n([C@H](c3ccccc3)C3CCOCC3)c2c1F` [Example 464, Methyl N-{2-[3-(dimethyl-1H-1,2,3-triazol-5-yl)-6-fluoro-5-[(S)-oxan-4-yl(phenyl)methyl]-5H-pyrido[3,2-b]indol-7-yl]propan-2-yl}carbamate], the pIC50 was above 8.30.
Turning to `Cn1nnc(CF)c1-c1cnc2c3ccc(S(C)(=O)=O)cc3n([C@H](c3ccccc3)C3CCOCC3)c2c1` [Example 180, 4-(Fluoromethyl)-5-{7-methanesulfonyl-5-[(S)-oxan-4-yl(phenyl)methyl]-5H-pyrido[3,2-b]indol-3-yl}-1-methyl-1H-1,2,3-triazole], the pIC50 was above 8.30.
On the same count and under the same terms, then `Cc1cc(C(C2CCOCC2)n2c3cc(C(C)(C)O)ccc3c3ncc(-c4c(C)noc4C)cc32)no1` (single isomer, unassigned) [Example 306], with above 8.30; and `Cc1noc(C)c1-c1cnc2c3ccc(C(C)(C)O)cc3n(C(c3cc(F)cc(F)c3)C3CCOCC3)c2c1` (single isomer, unassigned) [Example 130, 2-{5-[(3,5-Difluorophenyl)(oxan-4-yl)methyl]-3-(dimethyl-1,2-oxazol-4-yl)-5H-pyrido[3,2-b]indol-7-yl}propan-2-ol], with above 8.30; and `[2H]C([2H])([2H])c1nnn(C)c1-c1cnc2c3cc(F)c(C(C)(C)O)cc3n(C(c3cc(C)on3)C3CCOCC3)c2c1` (single isomer, unassigned) [Example 313], with above 8.30.
Consider `[2H]C([2H])([2H])c1nnn(C)c1-c1cnc2c3c(OCC(C)(F)F)ccc(S(C)(=O)=O)c3n(C(c3ncccc3F)C3CCOCC3)c2c1` (stereo not shown) [Example 247, 2-{[9-(2,2-Difluoropropoxy)-6-methanesulfonyl-3-[4-(^2H3)methyl-1-methyl-1H-1,2,3-triazol-5-yl]-5H-pyrido[3,2-b]indol-5-yl](oxan-4-yl)methyl}-3-fluoropyridine], for which the pIC50 is above 8.30.
For `COc1cc(C(C)(C)O)cc2c1c1ncc(-c3c(C)nnn3C)cc1n2[C@H](c1ccccc1)C1CCOCC1` [Example 260, 2-[3-(Dimethyl-1H-1,2,3-triazol-5-yl)-9-methoxy-5-[(S)-oxan-4-yl(phenyl)methyl]-5H-pyrido[3,2-b]indol-7-yl]propan-2-ol], the pIC50 is above 8.30.
With `Cc1noc(C)c1-c1cnc2c3ccc(C(C)(C)O)cc3n([C@H](CCC(F)(F)F)c3ccccc3C(F)(F)F)c2c1` [Example 84], the pIC50 was above 5.82.
Compound `Cn1nnc(Cl)c1-c1cnc2c3ccc(C(C)(C)O)cc3n([C@H](c3ccccc3)C3CCOCC3)c2c1` [Example 387, 2-[3-(4-Chloro-1-methyl-1H-1,2,3-triazol-5-yl)-5-[(S)-oxan-4-yl(phenyl)methyl]-5H-pyrido[3,2-b]indol-7-yl]propan-2-ol] registered an IC50 (FRET BRD4 IC50 (nM)) below 5 nM.
Turning to `Cc1nnn(C)c1-c1cnc2c3c(S(C)(=O)=O)cccc3n([C@H](c3ccccc3F)C3CCOCC3)c2c1` [Example 269], the pIC50 was above 8.30.
Consider `Cc1noc(C)c1-c1cnc2c3ccc(C(C)(C)O)cc3n([C@@H](CCC(F)(F)F)c3cscn3)c2c1` [Example 20], for which the pIC50 was above 7.60.
Still for that read-out and setting: the same measure for `[2H]C([2H])([2H])c1nnn(C)c1-c1cnc2c3ccc(S(C)(=O)=O)cc3n(C(c3cc(C)on3)C3CCOCC3)c2c1` (stereo not shown) [Example 330, 5-{7-Methanesulfonyl-5-[(5-methyl-1,2-oxazol-3-yl)(oxan-4-yl)methyl]-5H-pyrido[3,2-b]indol-3-yl}-4-(^2H3)methyl-1-methyl-1H-1,2,3-triazole]: above 7.60; for `Cc1nnn(C)c1-c1cnc2c3c(F)cc(C(C)(C)O)cc3n([C@H](c3ccccc3)C3CCOCC3)c2c1` [Example 369, 2-[3-(Dimethyl-1H-1,2,3-triazol-5-yl)-9-fluoro-5-[(S)-oxan-4-yl(phenyl)methyl]-5H-pyrido[3,2-b]indol-7-yl]propan-2-ol]: above 8.30.
On to `Cc1nnn(C)c1-c1cnc2c3ccc(C(C)(C)O)cc3n(C(c3cc(F)cc(F)c3)C3CCOCC3)c2c1` (single isomer, unassigned) [Example 98, 2-{5-[(3,5-Difluorophenyl)(oxan-4-yl)methyl]-3-(dimethyl-1H-1,2,3-triazol-5-yl)-5H-pyrido[3,2-b]indol-7-yl}propan-2-ol], for which the pIC50 was above 8.30.
Same read-out and setting: then `[2H]C([2H])([2H])c1nnn(C)c1-c1cnc2c3ccc(S(C)(=O)=O)cc3n(C(c3ncccc3F)C3CCC(F)(F)CC3)c2c1` (stereo not shown) [Example 239, 2-[(4,4-Difluorocyclohexyl)({7-methanesulfonyl-3-[4-(^2H3)methyl-1-methyl-1H-1,2,3-triazol-5-yl]-5H-pyrido[3,2-b]indol-5-yl})methyl]-3-fluoropyridine], with above 8.30.
On the same count and under the same terms, then `[2H]C([2H])([2H])c1nnn(C)c1-c1cnc2c3c(OC)cc(S(C)(=O)=O)cc3n(C(c3ncccc3F)C3CCOCC3)c2c1` (stereo not shown) [Example 207, 3-Fluoro-2-[{7-methanesulfonyl-9-methoxy-3-[4-(^2H3)methyl-1-methyl-1H-1,2,3-triazol-5-yl]-5H-pyrido[3,2-b]indol-5-yl}(oxan-4-yl)methyl]pyridine], with above 8.30; and `Cc1nnn(C)c1-c1cnc2c3ccc(C(C)(C)O)c(F)c3n(C(c3ccncc3F)C3CCOCC3)c2c1` (single isomer, unassigned) [Example 289], with above 8.30.
As for `Cc1noc(C(C2CCOCC2)n2c3cc(C(C)(C)O)ccc3c3ncc(-c4c(C)nnn4C)cc32)n1` (single isomer, unassigned) [Example 300], the pIC50 is above 7.60.
The same measure, in the same setting: then `Cc1nnn(C)c1-c1cnc2c3ccc(C(C)(C)F)cc3n([C@H](c3ccccc3)C3CCOCC3)c2c1` [Example 351, 5-[7-(2-Fluoropropan-2-yl)-5-[(S)-oxan-4-yl(phenyl)methyl]-5H-pyrido[3,2-b]indol-3-yl]-1,4-dimethyl-1H-1,2,3-triazole], with above 8.30.
The same measure, in the same setting: then `Cc1nnn(C)c1-c1cnc2c3ccc(C(C)(C)O)cc3n([C@H](c3ccccc3F)C3CCOCC3)c2c1` [Example 76], with above 8.30; and `Cc1nnn(C)c1-c1cnc2c3ccc(C4(O)COC4)cc3n([C@H](c3ccc(F)cc3)C3CCOCC3)c2c1` [Example 243, 3-[3-(Dimethyl-1H-1,2,3-triazol-5-yl)-5-[(S)-(4-fluorophenyl)(oxan-4-yl)methyl]-5H-pyrido[3,2-b]indol-7-yl]oxetan-3-ol], with above 8.30; and `Cc1nnn(C)c1-c1cnc2c3ccc(C(C)(C)O)cc3n(C(c3c(F)cccc3F)C3CCOCC3)c2c1` (single isomer, unassigned) [Example 133, 2-{5-[(2,6-Difluorophenyl)(oxan-4-yl)methyl]-3-(dimethyl-1H-1,2,3-triazol-5-yl)-5H-pyrido[3,2-b]indol-7-yl}propan-2-ol], with above 8.30.
`Cc1noc(C)c1-c1cnc2c3ccc(C(C)(C)O)cc3n(C(C3CCC3)C3CCC3)c2c1` [Example 31, 2-[5-(Dicyclobutylmethyl)-3-(dimethyl-1,2-oxazol-4-yl)-5H-pyrido[3,2-b]indol-7-yl]propan-2-ol]: the pIC50 is above 8.30.
As for `Cc1nnn(C)c1-c1cnc2c3ccc(C(C)(C)NC(=O)CN(C)C)cc3n(C(c3ccccc3)C3CCOCC3)c2c1` (single isomer, unassigned) [Example 167, N-{2-[3-(Dimethyl-1H-1,2,3-triazol-5-yl)-5-[oxan-4-yl(phenyl)methyl]-5H-pyrido[3,2-b]indol-7-yl]propan-2-yl}-2-(dimethylamino)acetamide], the pIC50 was above 8.30.
On the same count and under the same terms, then `Cc1noc(C)c1-c1cnc2c3ccc(S(C)(=O)=O)cc3n(C(c3ccccc3)C3CCC(F)(F)CC3)c2c1` (single isomer, unassigned) [Example 155, 4-{5-[(4,4-Difluorocyclohexyl)(phenyl)methyl]-7-methanesulfonyl-5H-pyrido[3,2-b]indol-3-yl}-3,5-dimethyl-1,2-oxazole], with above 7.60; and `[2H]C([2H])([2H])c1nnn(C)c1-c1cnc2c3c(F)cc(S(C)(=O)=O)cc3n(C(c3ncccc3F)C3CCC(F)(F)CC3)c2c1` (stereo not shown) [Example 211, 2-[(4,4-Difluorocyclohexyl)({9-fluoro-7-methanesulfonyl-3-[4-(^2H3)methyl-1-methyl-1H-1,2,3-triazol-5-yl]-5H-pyrido[3,2-b]indol-5-yl})methyl]-3-fluoropyridine], with above 8.30; and `Cc1noc(C)c1-c1cnc2c3ccc(C(C)(C)O)cc3n(C(c3ccccc3)C3CCOCC3)c2c1` (single isomer, unassigned) [Example 2, 2-[3-(Dimethyl-1,2-oxazol-4-yl)-5-[oxan-4-yl(phenyl)methyl]-5H-pyrido[3,2-b]indol-7-yl]propan-2-ol], with above 8.30.
Take `COc1ccc(S(C)(=O)=O)c2c1c1ncc(-c3c(C)noc3C)cc1n2[C@H](c1ccccc1F)C1CCOCC1` [Example 186, 4-{5-[(S)-(2-Fluorophenyl)(oxan-4-yl)methyl]-6-methanesulfonyl-9-methoxy-5H-pyrido[3,2-b]indol-3-yl}-3,5-dimethyl-1,2-oxazole]: the pIC50 was above 8.30.

As a reminder, the pIC50 is −log10 of the IC50, conventionally taken in molar units. The term IC50 denotes the concentration that gives 50% inhibition. Read a low IC50 as inhibition by little substance.

Source of the values: patent US10112941B2, “Tricyclic compounds as anticancer agents” (BRISTOL-MYERS SQUIBB COMPANY, priority 2013, dated 2018).
